± gives the standard deviation of the averaged measurements.
Assays:
Settings in all cases: 72 h
[1] = test system: Caco-2; assay: cell viability relative to DMSO; higher = less toxic
[2] = test system: Calu-3; assay: as above
[3] = test system: HepG2; assay: as above
[4] = test system: U2OS; assay: as above
[5] = test system: Vero E6; assay: as above
[6] = test system: Caco-2; assay: relative viability EC50 (midpoint between 100% and the lowest measured viability); higher = less toxic
[7] = test system: Calu-3; assay: as above
[8] = test system: HepG2; assay: as above
[9] = test system: U2OS; assay: as above
[10] = test system: Vero E6; assay: as above
[11] = test system: Caco-2; assay: drug sensitivity score (DSS) for viability; higher = more toxic; extreme values may be limits of the assay
[12] = test system: Calu-3; assay: as above
[13] = test system: HepG2; assay: as above
[14] = test system: U2OS; assay: as above
[15] = test system: Vero E6; assay: as above

Row | SMILES | cell viability ([1]; 1 nM) [%] | cell viability ([1]; 10 nM) [%] | cell viability ([1]; 100 nM) [%] | cell viability ([1]; 1000 nM) [%] | cell viability ([1]; 10000 nM) [%] | cell viability ([2]; 1 nM) [%] | cell viability ([2]; 10 nM) [%] | cell viability ([2]; 100 nM) [%] | cell viability ([2]; 1000 nM) [%] | cell viability ([2]; 10000 nM) [%] | cell viability ([3]; 1 nM) [%] | cell viability ([3]; 10 nM) [%] | cell viability ([3]; 100 nM) [%] | cell viability ([3]; 1000 nM) [%] | cell viability ([3]; 10000 nM) [%] | cell viability ([4]; 1 nM) [%] | cell viability ([4]; 10 nM) [%] | cell viability ([4]; 100 nM) [%] | cell viability ([4]; 1000 nM) [%] | cell viability ([4]; 10000 nM) [%] | cell viability ([5]; 1 nM) [%] | cell viability ([5]; 10 nM) [%] | cell viability ([5]; 100 nM) [%] | cell viability ([5]; 1000 nM) [%] | cell viability ([5]; 10000 nM) [%] | relative viability EC50 [6] [µM] | relative viability EC50 [7] [µM] | relative viability EC50 [8] [µM] | relative viability EC50 [9] [µM] | relative viability EC50 [10] [µM] | drug sensitivity score [11] | drug sensitivity score [12] | drug sensitivity score [13] | drug sensitivity score [14] | drug sensitivity score [15]
1 | CCn1c(=O)n(C2=C(CO)CN(CC3CCCCCCC3)CC2)c2ccccc21 [trap-101] | 102 | 89.9 | 96.7 | 93.6 | 83.5 | 99.6 | 106 | 94.5 | 104 | 92.6 | 97.8 | 96.7 | 91.5 | 96.5 | 98 | 98.2 | 101 | 97.4 | 98.8 | 93.8 | 98 | 96.8 | 95.6 | 96.3 | 98.9 | > 10 | > 10 | > 10 | > 10 | > 10 | 0.3 | 0 | 0 | 0 | 0
2 | CC(=O)O[C@@H]1CC[C@@]2(C)[C@@H](CC[C@]3(C)[C@@H]2C(=O)C=C2[C@@H]4[C@@H](C)[C@H](C)CC[C@]4(C)CC[C@]23C)[C@@]1(C)C(=O)O [acetyl-11-keto-beta-boswellic-acid] | 94 ± 1.4 | 109 ± 2.7 | 87.8 ± 15 | 98.1 ± 18 | 96.5 ± 4.7 | 93.5 ± 0.71 | 108 ± 3.8 | 102 ± 7.1 | 101 ± 22 | 96.5 ± 3.5 | 109 ± 7.6 | 94 ± 7.4 | 106.6 ± 0.85 | 103 ± 5.4 | 101 ± 8 | 101 ± 2.5 | 98.5 ± 2.3 | 98.7 ± 3.1 | 102 ± 4.6 | 99.5 ± 1.1 | 104 ± 7.3 | 94.4 ± 5 | 99.7 ± 8 | 102 ± 3.4 | 104 ± 3.3 | > 10 | > 10 | > 10 | > 10 | > 10 | 0 | 0 | 0 | 0 | 0
3 | C=CC(C)(O)CCC=C(C)C (centres undefined) [linalool] | 110 | 99.2 | 99.2 | 93.7 | 99.2 |  |  |  |  |  | 95.5 | 102 | 96.5 | 100 | 95.2 | 103 | 95.7 | 97.4 | 95 | 97.9 | 101 | 104 | 96.3 | 102 | 98.7 | > 10 |  | > 10 | > 10 | > 10 | 0 |  | 0 | 0 | 0
4 | COc1cc(N)c(Cl)cc1C(=O)CCC1CCN(CCNS(C)(=O)=O)CC1 | 95.1 | 97.3 | 95.5 | 92.3 | 92.3 | 99.6 | 92.6 | 88.3 | 99.1 | 95.9 | 100 | 100 | 98.2 | 89 | 95.5 | 92.6 | 101 | 94.2 | 99.2 | 92.6 | 99.7 | 101 | 100 | 93.9 | 98.3 | > 10 | > 10 | > 10 | > 10 | > 10 | 0 | 0 | 0.3 | 0 | 0
5 | CC12CCC(C(Br)C1=O)C2(C)C (centres undefined) [3-bromocamphor] | 88.5 | 94.3 | 96.6 | 95.2 | 94.8 |  |  |  |  |  | 94.1 | 87.3 | 94.3 | 101 | 104 | 99.6 | 95.1 | 100 | 97.1 | 101 | 91.8 | 102 | 92.2 | 103 | 104 | > 10 |  | > 10 | > 10 | > 10 | 0 |  | 0 | 0 | 0
6 | O=C(Nc1ccc(C(=O)O)c(O)c1)c1ccccc1 [benzoylpas] | 93 | 97.5 | 91.9 | 97.5 | 92 | 94.1 | 106 | 97.9 | 90.3 | 91.1 | 93.5 | 97 | 97.7 | 98.6 | 107 | 100 | 102 | 92.8 | 95.9 | 101 | 99.8 | 96.8 | 105 | 97.4 | 103 | > 10 | > 10 | > 10 | > 10 | > 10 | 0 | 0 | 0 | 0 | 0
7 | CCNCc1cc(C(C)(C)C)c(O)c(C(C)(C)C)c1 | 103 | 97.8 | 96.1 | 98.2 | 99.8 |  |  |  |  |  | 99.1 | 99.7 | 99.6 | 98.4 | 105 | 102 | 103 | 98.5 | 101 | 96.5 | 101 | 104 | 96.7 | 97.2 | 105 | > 10 |  | > 10 | > 10 | > 10 | 0 |  | 0 | 0 | 0
8 | CCn1c(=O)[nH]c2cc(Cl)c(Cl)cc21 [DCEBIO] | 98.2 | 97.2 | 99.7 | 93 | 98.7 | 101 | 98.6 | 93.8 | 96.9 | 102 | 101 | 104 | 104 | 86.3 | 107 | 98 | 103 | 98.3 | 98.3 | 97 | 102 | 100 | 96 | 99.9 | 99.2 | > 10 | > 10 | > 10 | > 10 | > 10 | 0 | 0 | 0 | 0 | 0

— the supplement of paper PMC13380429
